Like-named read-outs stand apart in the source and are kept apart here.
Key:
[1] = test system: intracellular B. henselae in DH82 cells; experiment: DH82 cell-based MBC assay (coculture); design: species or system Bartonella henselae (canine DH82 cells); details: for MBC: B. henselae, DH82 cell-based assay, 96 hours; for effect of individual therapeutic agent on B. henselae growth: DH82 cell-based system, 16 μg/ml, agents used individually
Procedure: DH82 are a canine cell line having a macrophage-like morphology. Cells were initially cultured in T75-Flasks (Corning, 430641U) until confluency was reached and were split at a ratio of 1:4 for every 2-3 days. Cells were then seeded into either 24-well cell culture plates (Corning, 3526) for coculture assay or 8-well chamber slides (Millipore #PEGGS0816) for immunofluorescence assays. A total of 50,000 cells were seeded into each well of a 24-well plate or per chamber of an 8-well chamber slide with EMEM with 15% FBS and incubated for 24-48 hours before infections.
Therapeutic agent stocks were prepared in the following solvents: 10 mg/ml of ceftriaxone (USP), doxycycline (Fisher scientific, D9891-1G), gentamicin (Fisher scientific, 1405-41-0), ampicillin (Fisher scientific, 69-52-3) and azlocillin (Flightpath) in sterile cell culture grade water, whereas 5 mg/ml of azithromycin (Sigma, PZ0007-5MG) was dissolved in sterile cell culture grade DMSO. Antibiotics were then aliquoted and stored at either −80° C. or −20° C. until further use. On the day of assay, these stock concentrations were diluted to 1 mg/ml and 100 μg/ml in the respected bacterial culture media for MIC and cell-free, liquid culture MBC assays. For the DH82 cell-based MBC assay, antibiotics were diluted in EMEM media supplemented with 15% heat inactivated FBS.
Bacteria (B. henselae) that were grown in Grace's insect media, were centrifuged at 7000 rpm for 10 min. The supernatant was removed and washed with 1×PBS for three times. After the washes, pellet was resuspended in EMEM media supplemented with 15% heat inactivated FBS. This bacterial suspension was then added to DH82 cells at a multiplicity of infection (MOI) of 1:50 and incubated for 2 hours. After 2 hours, unbound bacteria were removed by washing the cells with only EMEM media 3 times each 15 min wash. Cells were then incubated with EMEM+15% FBS media at 37° C. with 5% CO2 for 48 hours.
After 48 hrs of incubation, the media was removed from the cells and the therapeutic agents that were diluted in EMEM+15% FBS was added. Each therapeutic agent was diluted at 11 different concentrations (16, 8, 4, 2, 1, 0.5, 0.25, 0.125, 0.062, 0.031, 0.0156 μg/ml), as described above and incubated for 96 hours. […] The bactericidal activity of the therapeutic agents were then evaluated by plating the lysed cells on blood agar plates. Briefly, infected DH82 cells were initially washed for 30 min twice to remove the antibiotics that were added. Later, cells were osmotically lysed by adding 1 ml of sterile ice-cold distilled water and incubated for 5 min on ice. The lysed cells were then plated onto blood agar plates and incubated at 37° C. with 5% CO2 for about 10 days to evaluate the growth of viable B. henselae. This experiment was conducted in duplicates and repeated twice with all 6 antibiotics including 11 different concentrations. The untreated infected cells were used as a positive control and untreated uninfected cells served as a negative control. The CFU counts are presented as average±standard deviation.
To evaluate the bactericidal activity and to determine if these antibiotics could penetrate the eukaryotic […], a new DH82 cell-based coculture system was utilized. […] Uninfected cells stained with primary rabbit B. henselaehyperimmunized polyclonal (primary) and goat anti-rabbit IgG Alexa fluor 594 (secondary) antibodies were used as a negative control. As an isotype control, DH82 cells infected with B. henselae and incubated with primary rabbit IgG were used.

B. henselae = details: cited from earlier work
[2] = Bartonella henselae, read-out: MBC

Compound | MBC [1, 2] | effect of individual therapeutic agent on B. henselae growth [1] | MBC [1] | activity against growing bacterial culture (B. henselae; growing culture) | activity against stationary phase B. henselae (B. henselae; stationary phase)
CO/N=C(\C(=O)N[C@@H]1C(=O)N2C(C(=O)O)=C(CSc3nc(=O)c(=O)[nH]n3C)CS[C@H]12)c1csc(N)n1 [Ceftriaxone, ceftriaxone] | > 16 µg/mL |  |  |  | 
CC1(C)S[C@@H]2[C@H](NC(=O)[C@H](NC(=O)N3CCNC3=O)c3ccccc3)C(=O)N2[C@H]1C(=O)O [Azlocillin, azlocillin] | > 16 µg/mL | showed reduced bacterial growth but were unable to completely inhibit the growth |  |  | 
gentamicin |  |  | >16 µg/mL |  | 
CC[C@H]1OC(=O)[C@H](C)[C@@H](O[C@H]2C[C@@](C)(OC)[C@@H](O)[C@H](C)O2)[C@H](C)[C@@H](O[C@@H]2O[C@H](C)C[C@H](N(C)C)[C@H]2O)[C@](C)(O)C[C@@H](C)CN(C)[C@H](C)[C@@H](O)[C@]1(C)O [Azithromycin, azithromycin] | > 16 µg/mL | showed reduced bacterial growth but were unable to completely inhibit the growth |  | effective | very poor activity

— patent US20240269158A1, “THERAPEUTIC AGENTS AND METHODS FOR TREATMENT OF BARTONELLOSIS” (THE ADMINISTRATORS OF THE TULANE EDUCATIONAL FUND, priority 2021, published 2024)
